From patent US20240209016A1, “FLUORESCENT NUCLEOSIDE PHOSPHATES” (STEALTH LABELS BIOTECH AB, priority 2021, published 2024)
“And” between values parts separate entries of the source, which are not always exact repeats. Equal values may be shown once.

What was measured:
Huh-7 cells [1] = assay: Uptake competition with ATP or adenosine; assay type: cell-based, human; conditions: 2.5 μM compound, 4 h, increasing ATP or adenosine
Procedure: Uptake of 2CNqATP and pATP was compared with natural adenosine triphosphate (ATP) or adenosine (both purchased from Sigma-Aldrich). The readout is based on the fluorescence of the compounds, detected in living cells by flow cytometry or in cell lysate using a microplate reader following co-administration with increasing concentrations of natural ATP or adenosine.
Cells were seeded in a 96-well plate. Treatment solutions with ATP or adenosine were prepared by stepwise dilution in CCM to reach the concentrations shown in FIG. 7. 2CNqATP or pATP were added at a concentration of 2.5 μM. The cells were incubated for 4 h at 37° C. and 5% CO2. Cell morphology was checked under a light microscope.
For flow cytometry, the treated cells were washed three times with DPBS and detached with 0.25% trypsin-EDTA, which was then neutralized with CCM. Samples were transferred to a 96 U-well plate for high throughput readout on a BD LSRFortessa flow cytometer. Samples were excited using a 405 nm laser and emission passed through a bandpass filter centred at 450 nm (±20 nm).
For lysate readout, cells were lysed in 5x passive lysis buffer (Promega) for 1 h rocking at room temperature (ca. 22° C.). Fluorescence was recorded on an Optima Blue Fluostar plate reader (BMG Labtech). 2CNqATP was excited at 355 nm (±20 nm) and emission was detected using bandpass filter centered at 460 nm (±12 nm). […]

Huh-7 cells [2] = assay: Cellular uptake and localisation by confocal fluorescence microscopy; assay type: cell-based, human; conditions: 2.5 μM
Excerpt: Confocal Laser Scanning Fluorescence Microscopy: Images were captured using a Nikon eclipse Ti microscope with a Nikon C2plus scanner, two parallel Gallium arsenide phosphide (GaAsP) detectors, and an Apo 60x Oil μS DIC N2 objective. To excite the fluorescent nucleoside triphosphates the 405 nm laser line was used, and the emission was collected between 407-607 nm. To optimize the signal while avoiding photobleaching of the compounds a laser power of 2% and a detector gain of 4% was applied. For live cell imaging, Huh-7 cells were seeded in a four-compartment dish (CELLview Dishes, Greiner Bio-One) with glass bottom as described above. During imaging the dish was placed in a stage top incubation chamber (OKO lab) maintaining 37° C. and 5% CO2.
Time-lapse Imaging: To image the uptake of compounds 7 and 17 over time, the time-lapse setup of the NIS software was used. […]
Results: To explore the cellular uptake of compounds 7 and 17, they were added to Huh-7 cells in CCM and the uptake was monitored as function of time using a confocal fluorescence microscope (FIG. 4). Control cells, exposed to CCM alone, were imaged using the same microscopy settings and recorded as reference to probe for cellular autofluorescence levels. […]

[3] = Photophysical characterisation (absorption and emission spectra in DPBS); assay type: physicochemical; conditions: room temperature; for ε405, FBA χ ΦF: at 405 nm; for λem, max / ΦF: excitation 355 nm; for ΦF: relative to quinine sulphate
Procedure: Absorption spectra were recorded on a Cary 4000 spectrometer (Agilent Technologies). The emission spectra were measured on a SPEX Fluorolog 3 spectrofluorimeter (Jobin Yvon Horiba). Three consecutive emission spectra recorded at a scan rate of 600 nm min−1 were collected and averaged. The spectra of compounds 7 and 17 in DPBS were recorded from 360 nm to 695 nm with excitation at 355 nm. To avoid bleaching, the monochromator slits on the excitation side were set to 0.8 nm, and on the emission side to 2.5 nm.
The spectra of molar absorptivities (ε in M^−1cm^−1) were calculated using Equation 1, with A being the measured absorption, A260 and ε260 the absorption or molar absorptivity, respectively, at 260 nm.
The fluorescence quantum yields were determined relative to the quantum yield of quinine sulphate in 0.5 M H2SO4 (ϕF=0.546^42, referred to as reference), and calculated using Equation 2, in which subscripts s and r refer to sample and reference, respectively. I is the integrated fluorescence intensity, A the measured absorption of the fluorophore at the excitation wavelength and n is the refractive index of the solvent (H2O or H2SO4, respectively; Eaton D. F.; Pure Appl. Chem. 60, 1107-1114 [1988 ]).
The spectroscopic properties of compounds 7 and 17 were determined under physiological conditions in order to determine the experimental setup for cell studies, with absorption and emission spectra being recorded in DPBS to mimic the ionic strength and salt composition in mammalian cells. To record emission spectra, the excitation wavelength was set to 355 nm, and measurements were performed at room temperature (ca. 22° C.). Molar absorptivities (s) were then calculated using the Beer-Lambert law.

Huh-7 cells [4] = assay: alamarBlue cell viability (metabolic activity) assay; assay type: cell-based; conditions: lower doses, 24 h exposure
Procedure: The Huh-7 human liver cell line was used.
After 24 h exposure with compounds 7 or 17, the conditioned medium was removed from the cells and used for the LDH leakage assay (see below). Freshly prepared alamarBlue cell viability reagent (Invitrogen, diluted 1:10 in CCM) was added, followed by incubation for 3 h at 37° C. and 5% CO2. The resulting resorufin fluorescence was read using an Optima Fluostar plate reader (BMG Labtech) Ex: 544 nm/Em: 590 nm. Dimethyl sulfoxide 5% and CCM alone (i.e. compounds 7 and 17 0 μM) were used as positive and negative controls for cell death, respectively.

Huh-7 cells [5] = assay: Lactate dehydrogenase (LDH) leakage assay (cell membrane integrity); conditions: all exposure conditions, 24 h; in parity with untreated control cells
Procedure: The Huh-7 human liver cell line was used. […] For sub-cultivation the adherent cells were washed twice with DPBS, containing no calcium or magnesium, and detached with 0.25% trypsin ethylenediaminetetraacetic acid 1x (trypsin-EDTA, Gibco, with phenol red). For seeding, the cells were counted after trypsin neutralization, diluted to the desired number of cells (Table 2) and thereafter incubated at 37° C. with 5% CO2 for 24 h before experiments.
Prior to treatment, the conditioned medium was removed from the Huh-7 cells, and the compounds (stock solution in DPBS diluted in CCM) were added to the cells for different exposure times. Unexposed cells were treated the same way, with the same amount of added DPBS to CCM, instead of the compounds. Two different cytotoxicity assays (alamarBlue to measure metabolic activity and LDH leakage to measure cell membrane integrity) were performed in parallel using the cells and the culture medium from each sample, respectively. Treatments were done in triplicates and the experiment was repeated twice.
Lactate Dehydrogenase (LDH) Leakage Assay: To test for released LDH, the CyQUANT LDH Cytotoxicity Assay kit (Invitrogen) was used. […] Maximum LDH release were determined by treating cells with a 1:10 dilution of lysis buffer in serum free medium for 30 min at 37° C. and 5% CO2.

In the case of “((2R,3S,4R,5R)-5-(2,3,5,6-tetraazacyclopenta[de]tetracen-2(6H)-yl)-3,4-dihydroxytetrahydrofuran-2-yl)methyl hydrogen triphosphate [pATP]”, the “uptake competition with ATP and adenosine” value (Huh-7 cells [1]) is reported as “also competes with ATP and adenosine, but the effect is considerably weaker”, the “intracellular fluorescence following 20 h exposure” value (Huh-7 cells [2]) is reported as “strong intracellular fluorescence” and the absorption band peaks [3] is reported as 370 nm and 386 nm. For the same substance, the “εmax, FBA χ ΦF” value [3] was 6000 M⁻¹ cm⁻¹, the “λabs, max” value [3] was 386 nm and the “ε405, FBA χ ΦF” value [3] was 909 M⁻¹ cm⁻¹. The “λem, max” value [3] was 420 nm and the ΦF [3] was 49%.
For “((2R,3S,4R,5R)-5-(8-cyano-2,3,5,6-tetraazaaceanthrylen-2(6H)-yl)-3,4-dihydroxytetrahydrofuran-2-yl)methyl hydrogen triphosphate [2CNqATP]”, the “uptake competition with ATP and adenosine” value (Huh-7 cells [1]) was “competes with both ATP and adenosine with a stronger competition effect for ATP at low concentrations”, the “intracellular fluorescence following 20 h exposure” value (Huh-7 cells [2]) was “strong intracellular fluorescence” and the “comparison of cell viability at lower doses” value (Huh-7 cells [4]) was “slightly more toxic than pATP”. The “level of released LDH” value (Huh-7 cells [5]) was “about 10%”, the “εmax, FBA χ ΦF” value [3] was 4900 M⁻¹ cm⁻¹ and the “λabs, max” value [3] was 352 nm. For the same substance, the “ε405, FBA χ ΦF” value [3] was 504 M⁻¹ cm⁻¹, the “λem, max” value [3] was 463 nm and the ΦF [3] was 47%.
